Literature values, collected in publication PMC8978187, “Feasibility, Biodistribution, and Preliminary Dosimetry in Peptide-Targeted Radionuclide Therapy of Diverse Adenocarcinomas Using ^177Lu-FAP-2286: First-in-Humans Results” (Journal of Nuclear Medicine, 2022).
Read-outs that look alike come from different tables or passages of the source.

Experiments:
tumor = conditions: compared with ^177Lu-FAP-2286
Text: In our patient cohort, FAP expression was confirmed in these malignancies on PET/CT using ^68Ga-FAP-2286 or ^68Ga-FAPI-04.

[1] = patients
Text: These findings were further corroborated by dosimetric studies.

| SMILES | tumor washout and tumor retention time (tumor) | bone marrow absorbed dose [1] [Gy/GBq] | effective half-life in the kidneys [1] [h] | effective half-life in the whole body [1] [h] | kidney absorbed dose [1] [Gy/GBq] | whole-body absorbed dose [1] [Gy/GBq] | kidney absorbed dose, range ([1]; range) | absorbed dose in bone metastases ([1]; reported by Kulkarni et al.) [Gy/GBq] | absorbed dose in bone metastases ([1]; reported by Violet et al.) [Gy/GBq] | absorbed dose in bone metastases, range ([1]; reported by Violet et al., range) |
| --- | --- | --- | --- | --- | --- | --- | --- | --- | --- | --- |
| N#C[C@@H]1CC(F)(F)CN1C(=O)CNC(=O)c1ccnc2ccc(OCCCN3CCN(C(=O)CN4CCN(CC(=O)O)CCN(CC(=O)O)CCN(CC(=O)O)CC4)CC3)cc12 [FAPI-04] | earlier tumor washout and a correspondingly shorter tumor retention time | – | – | – | – | – | – | – | – | – |
| N#C[C@@H]1CCCN1C(=O)CNC(=O)c1ccnc2ccc(OCCCN3CCN(C(=O)CN4CCN(CC(=O)O)CCN(CC(=O)O)CCN(CC(=O)O)CC4)CC3)cc12 [FAPI-02] | earlier tumor washout and a correspondingly shorter tumor retention time | – | – | – | – | – | – | – | – | – |
| O=C([O-])CN1CCN(CC(=O)[O-])CCN(CC(=O)NCC2CCC(C(=O)N[C@@H](Cc3ccc4ccccc4c3)C(=O)NCCCC[C@H](NC(=O)N[C@@H](CCC(=O)O)C(=O)O)C(=O)O)CC2)CCN(CC(=O)[O-])CC1.[177Lu+3] (some centres unmarked) [^177Lu-PSMA-617] | – | 0.03 | 42 | 40 | 0.99 | 0.04 | 0.45–1.6 Gy/GBq | 2.9 | 5.3 | 0.4–10.7 Gy/GBq |
